From patent publication US10774084B2, “Adenine derivatives and their use as UV-photoprotective agents” (UNIVERZITA PALACKEHO V OLOMOUCI, priority 2015, dated 2020)

Experiments:
Format in all cases: cell-based
K562 = assay: Calcein AM cytotoxicity assay; conditions: Homo sapiens, 72 hrs
Source text: (§1) One of the parameters used as the base for cytotoxic analysis is metabolic activity of viable cells. Microtiter assay, which uses the Calcein AM, is now widely used to quantify cell proliferation and cytotoxicity. The quantity of […] Calcein AM corresponds to the number of viable cells in culture. The cell lines of breast cancer (MCF-7), human erythromleukemia (K562), BJ human fibroblast cells (BJ) and human keratinocyte cell line (HaCaT) were used for routine screening of cytotoxicity of the compounds. The cells were maintened in Nunc/Corning 80 cm^2 plastic bottles and grown in media for cell culture (DMEM containing 5 g/l of glucose, 2 mM of glutamin, 100 U/ml of penicilin, 100 μg/ml of streptomycin, 10% of fetal bovine serum and sodium hydrogencarbonate). Cell suspensions were diluted according to cell types and according to expected final cell density (10^4 of cells per well according to characteristics of cell growth), pippeted 80 μl of cell suspension on 96-well microtiter plates. Innoculates were stabilized by 24 hrs preincubation at 37° C. in CO2. Particular concentrations of tested compounds were added in time zero as 20 μl aliquotto wells of microtiter plates. Usually, the compounds were diluted into six concentrations in four-fold dilution series. In routine testing, the highest well concentration was 166.7 μM, of change dependent on the substance. All drug concentrations were examined in duplicates. The incubation of cells with tested derivatives lasted 72 hrs at 37° C., 100% humidity and in the atmosphere of CO2. At the end of the incubation period, the cells were tested and analysed according to the addition of Calcein AM (Molecular probes) solution and the incubation lasted for next 1 hour. Fluorescence (FD) was measured using Labsystem FIA reader Fluorskan Ascent (Microsystems). The survival of tumor cells (The tumor cell survival-TCS) was counted according to equation: […](FDwell with derivative/FDcontrol well)×100%. The value of GI50, that is equal to the concentration of compound at which 50% of tumour cells are terminated. To evaluate the antitumor activity was tested toxicity of new derivatives on panel of cell lines of different histogenetic and species origin (Tab. 6, G150 concentration given in μM). […] Effective derivatives killed tumor cells in concentrations close to 0.1 to 50. None of the newly prepared compounds only reached the value.

[1] = test system: BJ human fibroblast cells; assay: Calcein AM cytotoxicity assay; conditions: 72 hrs
Source text: as §1

MCF-7 = assay: Calcein AM cytotoxicity assay; conditions: Homo sapiens, MCF7, 72 hrs
Source text: as §1

HaCaT = assay: Calcein AM cytotoxicity assay; conditions: Homo sapiens, 72 hrs
Source text: as §1

[2] = test system: skin fibroblasts BJ and keratinocytes HaCaT; assay: MTT in vitro cytotoxicity test for skin cells; conditions: Homo sapiens; 72 hour treatment; table does not say which cell line (BJ, HaCaT)
Protocol: MTT assay is a standard test of toxicity based on photometric measurement of the ability of metabolically active cells to reduce MTT (3-(4,5-dimethylthiazol-2-yl)-2,5-diphenyltetrazolium bromide). Using the assay, the effects of 72 hour treatments with several concentrations of the compounds (sixfold dilution, maximal concentration=50 microM) on viability of skin fibroblasts BJ and keratinocytes HaCaT were evaluated. About 5,000 cells were seeded per well of a 96-well plate 24 hours before the treatment. DMSO vehiculum was used as a negative control. After 72 hour treatment, new medium with MTT (Sigma, M2128) was added to a final concentration of 0.5 mg/ml. After 3 hours, medium was removed and resulting formazan in the cells was dissolved in DMSO. The absorbance was measured at 570 nm (640 nm reference wavelength). The IC50 values were calculated from the dose-response curves. 6-furfurylaminopurine riboside was used as positive controls.

c1csc(CNc2ncnc3c2ncn3C2CCCO2)c1 (stereo not drawn) [Compound 9, 6-(thiophen-2-ylmethylamino)-9-(tetrahydrofuran-2-yl)purine]
> 100 µM: GI50 (K562) | GI50 [1] | GI50 (MCF-7) | GI50 (HaCaT) | IC50 [2]

Clc1nc(NCC2CCCO2)c2ncn(C3CCCO3)c2n1 (stereo not drawn) [Compound 20, 2-chloro-6-(tetrahydrofuran-2-ylmethylamino)-9-(tetrahydrofuran-2-yl)purine]
> 100 µM: GI50 (K562) | GI50 [1] | GI50 (MCF-7) | GI50 (HaCaT)

Clc1nc(NCc2ccco2)c2ncn(C3CCCO3)c2n1 (stereo not drawn) [Compound 15, 2-chloro-6-furfurylamino-9-(tetrahydrofuran-2-yl)purine]
> 100 µM: IC50 [2]

c1nc(NCC2CCCO2)c2ncn(C3CCCO3)c2n1 (stereo not drawn) [Compound 1, 6-(tetrahydrofuran-2-ylmethylamino)-9-(tetrahydrofuran-2-yl)purine]
> 100 µM: GI50 (K562) | GI50 [1] | GI50 (MCF-7) | GI50 (HaCaT) | IC50 [2]
